Assay results published in patent EP2112152A1, “Dihydropteridinones as Plk Inhibitors” (GPC Biotech AG, priority 2008, dated 2009).

Assays:
Assay type in all cases: cell-based
Plk1 = Plk1 (Homo sapiens, UniProt P53350); experiment: Cellular Plk1 kinase activity: nucleophosmin (B23) Ser4 phosphorylation in HCT116 cells (MSD electrochemiluminescence); design: host or cells: HCT116; details: 100 ng/ml nocodazole, 4 hours after compound addition, read-out: Biochemical IC50 Nucleophosmin assay
Procedure: We observed the surprising finding that compounds of the invention were able to penetrate cell membranes and retained their activity as Plk1 inhibitors against native Plk1 expressed within living cancer cells.
Cellular Plk1 kinase activity was measured by quantification of nucleophosmin (B23) Ser4 phosphorylation in a cancer cell line. Nucleophosmin (B23) Ser4 is phosphorylated by Plk1, and this phosphorylation can be specifically detected by cross-reactivity of a phospho-Mek1/2 antibody that is able to recognizes a mitotic-specific phosphorylated form of nucleophosmin (B23) in a nocodazole dependent way (Zhang, H., Shi, X., Paddon, H., Hampong, M., Dai, W., and Pelech, S. (2004) B23/Nuleophosmin Serin 4 Phosphorylation Mediates Mitotic Functions of Polo-like Kinase 1. J. Biol. Chem., 279(34), 35726-35734).
Briefly, HCT116 cells (ATCC, Order No. CCL-247) were plated in 96 well dishes 24 hours prior to nocodazole treatment at 25 000 cells per well. Cells were then treated with 100 ng/ml nocodazole (Sigma-Aldrich, # M1404). 20 hours after nocodazole treatment, cells were exposed to the test compounds at various concentrations appropriate to determine an IC50. 4 hours after compound addition, medium was carefully removed and 120 µl of Complete Tris Lysis Buffer (R60TX; MSD, Gaithersburg MD) was added to each well. Samples were then stored at -20°C.
The level of nucleophosmin (B23) Ser4 phosphorylation in these cell lysis samples was estimated by electrochemiluminescence detection using the Meso Scale Discovery ("MSD") Technology Platform (MSD, Gaithersburg MD). The protocol used was as recommended by the manufacturer with the use of a phospho-Mek1/2 antibody (Cell Signalling, #9121) as primary antibody, and is as follows.
The cell lysates were thawed at room temperature and 40 µl were incubated on 96-well MULTI-ARRAY High Bind plates (L11XB; MSD) for 1.5 - 2 hours at room temperature. The supernatants were then removed and 150 µl of a 5% (w/v) solution of Blocker A (R93AA; MSD) in Tris Wash Buffer (R61TX; MSD) were added to each well. The plates were then incubated for 1 hour at room temperature before removal of the Blocker A solution and washed 4 times with 200 µl Tris Wash Buffer. 25 µl primary antibody (anti-phospho-MEK1/2, Cell Signalling, #9121, rabbit polyclonal), diluted 1:250 in a 1% (w/v) solution of Blocker A in Tris Wash Buffer, were added to each well. The plates were then incubated for 1 hour at room temperature before removal of the antibody solution and washed 4 times with 200 µl Tris Wash Buffer. Then, 25 µl of labelled secondary antibody (SULFO-TAG Goat Anti-Rabbit IgGAntibody (R32AB; MSD), diluted 1:500 in a 1% (w/v) solution of Blocker A in Tris Wash Buffer) were added to each well. The plates were then incubated for 1 hour at room temperature before removal of the antibody solution and washed 4 times with 200 µl Tris Wash Buffer. Then, […] of 1x Read Buffer T (R92TC; MSD) were carefully added to each well and the plates were quantitatively detected for each well with a SECTOR™ Imager 6000 (MSD).
Inhibitory activity of the compounds (IC) was calculated as % inhibition of nucleophosmin (B23) Ser4 phosphorylation compared to cells not treated with nocodazole.

HCT 116 = experiment: SRB cell proliferation assay, HCT 116; details: Homo sapiens, HCT-116, 72 h, 72 hours, SRB assay; read-out: CELLULAR IC50 HCT 116
Procedure: (§1) We observed the surprising finding that compounds of the invention were useful in inhibiting proliferation of tumor cell lines (see Table 3).
(§2) Cells were exposed to the test compounds at various concentrations appropriate to determine an IC50 for 72 hours. Cell proliferation was measured using the SRB assay according to Shekan et al (J Natl Cancer Inst (1990) 82, 1107-112) in order to estimate the IC50 values shown in Table 3. Briefly, cells were plated in 96 well dishes 24 hours prior to compound addition at the densities specified in Table 5.1. The assay was terminated with the addition of cold TCA to a final concentration of 10% after growth medium has been removed and the plates were incubated over night at 4°C. The plates were then washed 5 times with water and 100µl of a Sulforhodamine B solution (4%) was added to each well. The plates were then incubated for 10 minutes at room temperature before removal of unbound dye by washing with 1% acetic acid. The bound dye was solubilised with 10 mM Trizma base and the absorbance read at OD520.
(§3) Inhibitory activity of the compounds (IC) was calculated as % inhibition of cell proliferation compared to cells treated with the solvent (DMSO).
(§4) Table 8.1: 18-Cell Line Panel

IMR-90 = experiment: SRB cell proliferation assay, IMR-90; details: Homo sapiens, 72 hours, SRB assay, slow cycling cell line, read-out: CELLULAR IC50 IMR-90
Procedure: as §1, §2, §3, §4

HT-29 = experiment: SRB cell proliferation assay, HT-29; details: Homo sapiens, HT-29, 72 h, 72 hours, SRB assay; read-out: CELLULAR IC50 HT-29
Procedure: as §1, §2, §3, §4

Plk1, sequence (P53350 whole entry, species assumed): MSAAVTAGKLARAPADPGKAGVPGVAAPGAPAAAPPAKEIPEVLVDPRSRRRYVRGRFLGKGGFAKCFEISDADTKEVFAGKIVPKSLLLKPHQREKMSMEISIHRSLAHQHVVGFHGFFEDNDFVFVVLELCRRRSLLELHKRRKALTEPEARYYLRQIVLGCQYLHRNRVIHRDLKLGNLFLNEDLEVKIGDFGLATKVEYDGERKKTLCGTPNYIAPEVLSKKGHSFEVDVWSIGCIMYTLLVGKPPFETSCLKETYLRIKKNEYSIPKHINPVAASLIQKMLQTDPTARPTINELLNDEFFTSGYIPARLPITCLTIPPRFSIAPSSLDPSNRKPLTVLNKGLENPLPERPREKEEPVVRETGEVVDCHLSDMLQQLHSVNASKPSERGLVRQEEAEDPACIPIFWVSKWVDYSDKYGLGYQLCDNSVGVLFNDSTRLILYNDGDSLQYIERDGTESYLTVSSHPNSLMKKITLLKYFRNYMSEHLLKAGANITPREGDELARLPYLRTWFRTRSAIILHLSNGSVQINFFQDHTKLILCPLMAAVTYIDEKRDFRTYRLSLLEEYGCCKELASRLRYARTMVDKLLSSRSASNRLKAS

IC50 (Plk1) [nM]	IC50 (HCT 116) [nM]	IC50 (HT-29) [nM]	Compound	IC50 (IMR-90) [nM]
< 100			4-(8-Dimethylamino-7-ethyl-5-methyl-6-oxo-5,6,7,8-tetrahydro-pteridin-2-ylamino)-3-methoxy-N-(2-piperidin-1-yl-ethyl)-benzamide [Compound 6]	
< 100			4-(8-Dimethylamino-7-ethyl-5-methyl-6-oxo-5,6,7,8-tetrahydro-pteridin-2-ylamino)-3-methoxy-N-(4-piperidin-1-ylmethyl-phenyl)-benzamide [Compound 10]	
< 500			4-[8-(Cyclobutylmethyl-methyl-amino)-7-ethyl-5-methyl-6-oxo-5,6,7,8-tetrahydro-pteridin-2-ylamino]-N-[trans-4-(4-cyclopropylmethyl-piperazin-1-yl)-cyclohexyl]-3-methoxy-benzamide [Compound 35]	
< 100			4-[8-(Cyclopentylmethyl-methyl-amino)-7-ethyl-5-methyl-6-oxo-5,6,7,8-tetrahydro-pteridin-2-ylamino]-N-(1-ethylpiperidin-4-ylmethyl)-3-methoxy-benzamide [Compound 29]	
< 500	< 1000	< 1000	CCC1C(=O)N(C)c2cnc(Nc3ccc(C(=O)N[C@H]4CC[C@H](N5CCN(CC6CC6)CC5)CC4)cc3OC)nc2N1N(C)CC1CC1 (relative stereo) [Compound 18, 4-[8-(Cyclopropylmethyl-methyl-amino)-7-ethyl-5-methyl-6-oxo-5,6,7,8-tetrahydro-pteridin-2-ylamino]-N-[trans-4-(4-cyclopropylmethyl-piperazin-1-yl)-cyclohexyl]-3-methoxy-benzamide]	> 1000
< 100	< 1000	< 1000	CCCN(C)N1c2nc(Nc3ccc(C(=O)N[C@H]4CC[C@H](N5CCN(CC6CC6)CC5)CC4)cc3OC)ncc2N(C)C(=O)C1CC (relative stereo) [Compound 19, N-[trans-4-(4-Cyclopropylmethyl-piperazin-1-yl)-cyclohexyl]-4-[7-ethyl-5-methyl-8-(methyl-propyl-amino)-6-oxo-5,6,7,8-tetrahydro-pteridin-2-ylamino]-3-methoxy-benzamide]	> 1000
< 100	< 1000	< 1000	CCC1C(=O)N(C)c2cnc(Nc3ccc(C(=O)N[C@H]4CC[C@H](N5CCN(CC6CC6)CC5)CC4)cc3OC)nc2N1NC (relative stereo) [Compound 31, N-[trans-4-(4-Cyclopropylmethyl-piperazin-1-yl)-cyclohexyl]-4-(7-ethyl-5-methyl-8-methylamino-6-oxo-5,6,7,8-tetrahydro-pteridin-2-ylamino)-3-methoxy-benzamide]	> 1000
< 100			CCC1C(=O)N(C)c2cnc(Nc3ccc(C(=O)NC4CCN(C)CC4)cc3OC)nc2N1N(C)C (single isomer, unassigned) [Compound 37, 4-(8-dimethylamino-7-ethyl-5-methyl-6-oxo-5,6,7,8-tetrahydro-pteridin-2-ylamino)-3-methoxy-N-(1-methyl-piperidin-4-yl)-benzamide]	

More lines, now with the values behind:

Compound	IC50 (Plk1) [nM]	IC50 (HCT 116) [nM]	IC50 (HT-29) [nM]	IC50 (IMR-90) [nM]
4-(8-Dimethylamino-7-ethyl-5-methyl-6-oxo-5,6,7,8-tetrahydro-pteridin-2-ylamino)-3-methoxy-N-[4-(4-methyl-piperazin-1-yl)-phenyl]-benzamide [Compound 8]	< 100			
4-(8-Dimethylamino-7-ethyl-5-methyl-6-oxo-5,6,7,8-tetrahydro-pteridin-2-ylamino)-N-[4-(4-ethyl-piperazin-1-yl)-phenyl]-3-methoxy-benzamide [Compound 9]	< 100			
CCC1C(=O)N(C)c2cnc(Nc3ccc(C(=O)N[C@H]4CC[C@H](N5CCN(CC6CC6)CC5)CC4)cc3OC)nc2N1N(C)Cc1ccccc1 (relative stereo) [Compound 16, 4-[8-(Benzyl-methyl-amino)-7-ethyl-5-methyl-6-oxo-5,6,7,8-tetrahydro-pteridin-2-ylamino]-N-[trans-4-(4-cyclopropylmethyl-piperazin-1-yl)-cyclohexyl]-3-methoxy-benzamide]	< 100	< 1000	< 1000	> 1000
CCC1C(=O)N(C)c2cnc(Nc3ccc(C(=O)N[C@H]4CC[C@H](N5CCN(CC6CC6)CC5)CC4)cc3OC)nc2N1N(C)CC(C)C (relative stereo) [Compound 24, N-[trans-4-(4-Cyclopropylmethyl-piperazin-1-yl)-cyclohexyl]-4-[7-ethyl-8-(isobutyl-methyl-amino)-5-methyl-6-oxo-5,6,7,8-tetrahydro-pteridin-2-ylamino]-3-methoxy-benzamide]	< 100	< 1000	< 1000	> 1000
CCC1C(=O)N(C)c2cnc(Nc3ccc(C(=O)N[C@H]4CC[C@H](N5CCN(CC6CC6)CC5)CC4)cc3OC)nc2N1N(C)CC (relative stereo) [Compound 26, N-[trans-4-(4-Cyclopropylmethyl-piperazin-1-yl)-cyclohexyl]-4-[7-ethyl-8-(ethyl-methyl-amino)-5-methyl-6-oxo-5,6,7,8-tetrahydro-pteridin-2-ylamino]-3-methoxy-benzamide]	< 100	< 1000	< 1000	> 1000
CCC1C(=O)N(C)c2cnc(Nc3ccc(C(=O)N[C@H]4CC[C@H](N5CCN(CC6CC6)CC5)CC4)cc3OC)nc2N1N(C)CC1CCCC1 (relative stereo) [Compound 28, 4-[8-(Cyclopentylmethyl-methyl-amino)-7-ethyl-5-methyl-6-oxo-5,6,7,8-tetrahydro-pteridin-2-ylamino]-N-[trans-4-(4-cyclopropylmethyl-piperazin-1-yl)-cyclohexyl]-3-methoxy-benzamide]	< 100	< 1000	< 1000	> 1000
CCC1C(=O)N(C)c2cnc(Nc3ccc(C(=O)NC4CCN(C)CC4)cc3OC)nc2N1N(C)C (single isomer, unassigned) [Compound 36, 4-(8-dimethylamino-7-ethyl-5-methyl-6-oxo-5,6,7,8-tetrahydro-pteridin-2-ylamino)-3-methoxy-N-(1-methyl-piperidin-4-yl)-benzamide]	> 1000	> 1000	> 1000	> 1000
N-(2-Diethylamino-ethyl)-4-(8-dimethylamino-7-ethyl-5-methyl-6-oxo-5,6,7,8-tetrahydro-pteridin-2-ylamino)-3-methoxy-benzamide [Compound 5]	< 100			
N-(2-Diisopropylamino-ethyl)-4-(8-dimethylamino-7-ethyl-5-methyl-6-oxo-5,6,7,8-tetrahydro-pteridin-2-ylamino)-3-methoxy-benzamide [Compound 7]	< 100			
